{"source": "patent US20190030113A1", "about": "“DIPEPTIDYL ALDEHYDES FOR THE TREATMENT AND/OR PREVENTION OF PARASITIC DISEASES” (AXIAVA PHARMA UG, priority 2017, published 2019)", "key": {"Histomonas meleagridis": {"system": "Histomonas meleagridis", "settings": "300-400 ppm, cited from earlier work"}, "cathepsin L": {"molecular_target": "cathepsin L (Homo sapiens, UniProt P07711)", "sequence (P07711 114-333, species assumed)": "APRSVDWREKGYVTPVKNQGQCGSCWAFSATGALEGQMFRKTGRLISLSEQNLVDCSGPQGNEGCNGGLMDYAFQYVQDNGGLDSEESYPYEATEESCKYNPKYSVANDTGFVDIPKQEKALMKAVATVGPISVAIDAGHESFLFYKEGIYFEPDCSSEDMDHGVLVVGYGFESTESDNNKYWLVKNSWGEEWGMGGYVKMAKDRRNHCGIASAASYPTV", "settings": "cited from earlier work"}, "[1]": {"system": "T. gallinae cultured from the Vienna strain", "assay": "in vivo efficacy study in pigeons inoculated with T. gallinae", "set-up": "species or system Columba livia forma domestica", "settings": "5 mg/kg oral twice daily during 4 days, 15 birds per group", "method": "(§1) Thirty Columba livia forma domestica of both gender (2 groups of fifteen birds) were inoculated per os via a syringe with 2 million T. gallinae cultured from the Vienna strain. Initial age of the pigeons was 4-5 months. Two days later the pigeons were treated with twice daily oral administration of 5 mg/kg of Z—FY—CHO or the placebo (vehicle alone) during 4 days. The formulation was composed of 50 mg of the agent added to 1.0 ml 96 g/v % ethanol and 4 gram of prewarmed Solutol HS15. The formulation was stirred to a clear solution, then it was topped up with prewarmed distilled water to a volume of 10 ml. From this solution 0.1 ml per 100 g body weight was administered (=5 mg/kg). […] Regurgitation has been detected first in one pigeon from the placebo group in the evening on day of infection. […] No gross pathological findings in the esophagus or crop were detected during the necropsy. However, heterophilic infiltrates in the mucosa as well as in the submucous tissue and lymphocytes and plasmacells in the submucous tissue have been detected histopathologically in total eight pigeons (27%). Catarrhal erosive esophagitis and ingluvitis was significant more often detected in pigeons from the placebo group (7 of 8 pigeons with inflammatory reaction of the esophagus and crop, 88%; p=0.018)."}, "T. gallinae [2]": {"system": "T. gallinae", "assay": "in vitro growth of T. gallinae (total trophozoite number)", "format": "cell-based, Trichomonas gallinae", "settings": "10,000 nM, after 24 hours of treatment, normalized to 1% DMSO-treated group NCA", "method": "(§2) Z—FY—CHO was tested in an in vitro assay on growth and viability of two strains of T. gallinae (Vienna strain and ATCC 30095). T. gallinae is cultured in vitro under axenic conditions. Both strains are cultured in ATCC® Medium 2154 (LYI Entamoeba medium) which is prepared according to the recommendations of ATCC. Culture conditions are anaerobic at 37° C. Cultures are kept in sterile 50 ml plastic tubes in a total volume of 10 ml. T. gallinae cultures are passaged regularly (in two-day intervals) in advance to maintain the strains for the study.\nQuantification of total parasite number: The total parasite number is calculated separately for each tube. Therefore, the contents of each tube are centrifuged and the sediment resuspended in a given volume. A dilution of a subsample is being examined in a Neubauer counting chamber, the total number of parasites counted and the number of parasites in the respective tube be calculated.\nEach treatment group consists of 3 identical replicates, i.e. 3 tubes with identical treatment (triplicate).\n(§3) Five concentrations of each substance were tested against T. gallinae, namely 1 nM, 10 nM, 100 nM, 1000 nM, and 10000 nM. The total exposure time of the test compounds for the efficacy assay was 72 hours; media were renewed in intervals of 24 hours. Efficacy was measured after 24 hours of incubation."}, "[3]": {"assay": "side effects in the in vivo pigeon study", "set-up": "species or system Columba livia forma domestica", "settings": "10 mg/kg per day oral, 4 days, pigeons", "method": "as §1"}, "coccidiae": {"system": "coccidiae", "assay": "coccidiosis finding in the in vivo pigeon study", "set-up": "species or system Columba livia forma domestica", "settings": "5 mg/kg oral twice daily during 4 days; 3 of 15 placebo pigeons still showed coccidiae", "method": "as §1"}, "T. gallinae [4]": {"system": "T. gallinae", "assay": "in vitro viability of T. gallinae (viable-to-dead ratio, DAPI staining)", "format": "cell-based, Trichomonas gallinae", "settings": "different concentrations; after 24 hours of treatment", "method": "as §2, §3\nThe total parasite number is calculated before a subsample is subject to counting of viable and dead parasites. For counting, parasites are stained by DAPI nucleus staining for differentiation of viable and dead parasites."}, "Eimeria spp.": {"system": "Eimeria spp.", "settings": "20 mg/kg body weight, up to 14 days before the experimental infection; on average; cited from earlier work"}}, "note": "Residues, ends and D or L forms follow the SMILES beside them. *: point of attachment. Cbz = O=C(OCc1ccccc1)*; tBu = CC(C)(C)*"}
{"smiles": "CC1CS(=O)(=O)CCN1/N=C/c1ccc([N+](=O)[O-])o1", "note": "(stereo not drawn) [Nifurtimox]", "values": [{"measurement": "tolerability", "setting": "Histomonas meleagridis; turkeys", "value": "tolerated by turkeys"}, {"measurement": "efficacy (antiprotozoal)", "setting": "Histomonas meleagridis", "value": "effective"}]}
{"smiles": "O=C[C@H](Cc1ccccc1)NC(=O)[C@H](Cc1ccccc1)NC(=O)OCc1ccccc1", "note": "[a, Z-Phe-Phe-CHO] (Cbz-Phe-Phe-aldehyde)", "values": [{"measurement": "IC50", "setting": "cathepsin L", "value": 0.74, "unit": "nM"}]}
{"smiles": "O=C[C@H](Cc1ccc(O)cc1)NC(=O)[C@H](Cc1ccccc1)NC(=O)OCc1ccccc1", "note": "[b, N-(benzyloxycarbonyl)-L-phenylalanyl-L-tyrosinal] (Cbz-Phe-Tyr-aldehyde)", "values": [{"measurement": "pigeons with regurgitation", "setting": "[1]; placebo 7 of 15, p=0.018", "value": "one"}, {"measurement": "pigeons with catarrhal erosive esophagitis and ingluvitis (histopathology)", "setting": "[1]; placebo 7 pigeons, p=0.018", "value": "one"}, {"measurement": "trophozoite number relative to group NCA (control group)", "setting": "T. gallinae [2]; ATCC 30095 strain", "value": 26.3, "unit": "%"}, {"measurement": "trophozoite number relative to group NCA (control group)", "setting": "T. gallinae [2]; Vienna strain", "value": 24.0, "unit": "%"}, {"measurement": "side effects", "setting": "[3]", "value": "no obvious and/or statistically significant side effects"}, {"measurement": "detection of coccidiae after treatment", "setting": "coccidiae", "value": "no coccidiae could be detected"}, {"measurement": "viable-to-dead ratios compared to the control group NCA", "setting": "T. gallinae [4]", "value": "Markedly lower"}]}
{"smiles": "CC(C)C[C@@H](C=O)NC(=O)[C@H](Cc1ccccc1)NC(=O)OCc1ccccc1", "note": "[c, Z-Phe-Leu-CHO] (Cbz-Phe-Leu-aldehyde)", "values": [{"measurement": "IC50", "setting": "cathepsin L", "value": 0.78, "unit": "nM"}]}
{"smiles": "C[C@@H](C=O)NC(=O)[C@H](Cc1ccccc1)NC(=O)OCc1ccccc1", "note": "[d, Z-Phe-Ala-CHO]", "values": [{"measurement": "IC50", "setting": "cathepsin L", "value": 15.5, "unit": "nM"}]}
{"smiles": "COc1ccc(C[C@@H](C=O)NC(=O)[C@H](Cc2ccccc2)NC(=O)OCc2ccccc2)cc1", "note": "[e, Z-Phe-Tyr(Me)-CHO] (Cbz-Phe-Tyr(Me)-aldehyde)", "values": [{"measurement": "IC50", "setting": "cathepsin L", "value": 2.95, "unit": "nM"}]}
{"smiles": "CC(C)(C)Oc1ccc(CC(C=O)NC(=O)C(Cc2ccccc2)NC(=O)OCc2ccccc2)cc1", "note": "(stereo not drawn) [f, Z-Phe-Tyr(Bu)-CHO] (Cbz-Phe-Tyr(tBu)-aldehyde; configuration not given here)", "values": [{"measurement": "IC50", "setting": "cathepsin L", "value": 6.96, "unit": "nM"}]}
{"smiles": "Cc1cc(-n2c(=O)[nH]c(=O)n(C)c2=O)ccc1Oc1ccc(SC(F)(F)F)cc1", "note": "[toltrazuril]", "values": [{"measurement": "reduction in the number of oocysts in individual fecal samples", "setting": "Eimeria spp.", "value": "more than 97%"}]}
